# Laboratory results from patent US6489098B1, “Means and methods for monitoring nucleoside reverse transcriptase inhibitor antiretroviral therapy and guiding therapeutic decisions in the treatment of HIV/AIDS” (ViroLogic, Inc., priority 1998, dated 2002).
# Key:
# [1] = system: HIV with RT Lys65→Arg mutation; details: Lys65→Arg (K65R); cited from earlier work
# [2] = system: HIV with RT K70E mutation; details: in vitro selection; cited from earlier work
# [3] = system: AZT-resistant, 3TC-resistant and multi-drug resistant viruses; details: cited from earlier work
# [4] = system: ZDV-resistant HIV isolates; details: cited from earlier work
# [5] = system: HIV-1 RT mutant resistance test vector A62V; experiment: Phenotypic susceptibility assay, site directed RTV A62V; type: cell-based; details: RTV with A62V vs wild type RTV; 3 replicates
# Method: (§1) Resistance tests were carried out with resistance test vectors using two host cell types. Resistance test vector viral particles were produced by a first host cell (the resistance test vector host cell) that was prepared by transfecting a packaging host cell with the resistance test vector and the packaging expression vector. The resistance test vector viral particles were then used to infect a second host cell (the target host cell) in which the expression of the indicator gene is measured.
# (§2) The resistance test vectors containing a functional luciferase gene cassette were constructed and host cells were transfected with the resistance test vector DNA. The resistant test vectors contained patient-derived reverse transcriptase and protease sequences that were either susceptible or resistant to the antiretroviral agents, such as nucleoside reverse transcriptase inhibitors, non-nucleoside reverse transcriptase inhibitors and protease inhibitors. The resistance test vector viral particles produced by transfecting the resistance test vector DNA into host cells, either in the presence or absence of protease inhibitors, were used to infect target host cells grown either in the absence of NRTI or NNRTI or In the presence of increasing concentrations of the drug. The amount of luciferase activIty produced in infected target host cells in the presence of drug was compared to the amount of luciferase produced in infected target host cells in the absence of drug. Drug resistance was measured as the amount of drug required to inhibit by 50% the luciferase activity detected in the absence of drug (Inhibitory concentration 50%, IC50). The IC50 values were determined by plotting percent drug inhibition vs. log 10 drug concentration.
# (§3) Host cells were seeded in 10-cm-diameter dishes and were transfected several days after plating with resistance test vector plasmid DNA and the envelope expression vector. Transfections were performed using a calcium-phosphate precipitation procedure. The cell culture media containing the DNA precipitate was replaced with fresh medium, from one to 24 hours, after transfection. Cell culture media containing resistance test vector viral particles was harvested one to four days after transfection and was passed through a […] filter before being stored at −80° C. HIV capsid protein (p24) levels in the harvested cell culture media were determined by an EIA method as described by the manufacturer (SIAC; Frederick, Md.). Before infection, target cells (293 and 293/T) were plated in cell culture media. Control infections were performed using cell culture media from mock transfections (no DNA) or transfections containing the resistance test vector plasmid DNA without the envelope expression plasmid. One to three or more days after infectIon the media was removed and cell lysis buffer (Promega) was added to each well. Cell lysates were assayed for luciferase activity (FIG. 3). The inhibitory effect of the drug was determined using the following equation:
# (§4) % luciferase inhibition=1−(RLUluc[drug]÷RLUluc)×100
# (§5) where RLUluc [drug] is the relative light unit of luciferase activity in infected cells in the presence of drug and RLUluc is the Relative Light Unit of luciferase activity in infected cells in the absence of drug. IC50 values were obtained from the sigmoidal curves that were generated from the data by plotting the percent inhibition of luciferase activity vs. the log 10 drug concentration. The drug inhibition curves are shown in (FIG. 3).
# (§6) Genotypic changes that are observed to correlate with changes in phenotypic patterns of drug susceptibility are evaluated by construction of resistance test vectors containing the specific mutation on a defined, wild-type (drug susceptible) genetic background. Mutations may be incorporated alone and/or in combination with other known drug resistance mutations that are thought to modulate the susceptibility of HIV to a certain drug or class of drugs. […]
# [6] = system: HIV-1 RT mutant resistance test vector T69SSA; experiment: Phenotypic susceptibility assay, site directed RTV T69SSA; type: cell-based; details: RTV with T69SSA vs wild type RTV; 3 replicates
# Method: as §1, §2, §3, §4, §5, §6
# [7] = system: HIV-1 RT mutant resistance test vector A62V+T69SSA; experiment: Phenotypic susceptibility assay, site directed RTV A62V+T69SSA; type: cell-based; details: RTV with 62 + 69 (A62V+T69SSA); 4 replicates
# Method: as §1, §2, §3, §4, §5, §6
# [8] = system: HIV-1 RT mutant resistance test vector A62V+T69SSA+V75I; experiment: Phenotypic susceptibility assay, site directed RTV A62V+T69SSA+V75I; type: cell-based; details: RTV with 62 + 69 + 751 (A62V, T69SSA, V75I); 1 replicate
# Method: as §1, §2, §3, §4, §5, §6
# [9] = system: HIV-1 RT mutant resistance test vector 41 + 215 (M41L and T215Y); experiment: Phenotypic susceptibility assay, site directed RTV 41 + 215; type: cell-based; details: RTV with 41 + 215; 4 replicates
# Method: as §1, §2, §3, §4, §5, §6
# [10] = system: HIV-1 RT mutant resistance test vector 41 + 210 + 215; experiment: Phenotypic susceptibility assay, site directed RTV 41 + 210 + 215; type: cell-based; details: RTV with 41 + 210 + 215; 3 replicates
# Method: as §1, §2, §3, §4, §5, §6
# [11] = system: HIV-1 RT mutant resistance test vector M41L-T69SSA-T215Y-RTV; experiment: Phenotypic susceptibility assay, site directed RTV M41L+T69SSA+T215Y; type: cell-based; details: for effect on susceptibility (words): RTV with M41L+T69SSA+T215Y
# Method: as §1, §2, §3, §4, §5, §6
# [12] = system: HIV-1 RT mutant resistance test vector 41 + 62 + 69 + 75M + 210 + 215; experiment: Phenotypic susceptibility assay, site directed RTV 41 + 62 + 69 + 75M + 210 + 215; type: cell-based; details: RTV with 41 + 62 + 69 + 75M + 210 + 215; 1 replicate
# Method: as §1, §2, §3, §4, §5, §6
# [13] = system: HIV-1 RT mutant resistance test vector 41 + 62 + 69 + 75S + 210 + 215; experiment: Phenotypic susceptibility assay, site directed RTV 41 + 62 + 69 + 75S + 210 + 215; type: cell-based; details: RTV with 41 + 62 + 69 + 75S + 210 + 215; 1 replicate
# Method: as §1, §2, §3, §4, §5, §6
# [14] = system: HIV-1 RT mutant resistance test vector 41 + 184 + 215; experiment: Phenotypic susceptibility assay, site directed RTV 41 + 184 + 215; type: cell-based; details: RTV with 41 + 184 + 215; 3 replicates
# Method: as §1, §2, §3, §4, §5, §6
# [15] = system: HIV-1 RT mutant resistance test vector 41 + 69 + 184 + 215; experiment: Phenotypic susceptibility assay, site directed RTV 41 + 69 + 184 + 215; type: cell-based; details: RTV with 41 + 69 + 184 + 215; 2 replicates
# Method: as §1, §2, §3, §4, §5, §6
# [16] = system: HIV-1 RT mutant resistance test vector M41L+A62V+T69SSA+M184V+T215Y; experiment: Phenotypic susceptibility assay, site directed RTV M41L+A62V+T69SSA+M184V+T215Y; type: cell-based; details: RTV with 41 + 62 + 69 + 184 + 215; 2 replicates
# Method: as §1, §2, §3, §4, §5, §6
# [17] = system: HIV-1 RT mutant resistance test vector A62V-T69SSA-T215Y-RTV; experiment: Phenotypic susceptibility assay, site directed RTV A62V-T69SSA-T215Y; type: cell-based; details: RTV with 62 + 69 + 215 (A62V, T69SSA, T215Y); 1 replicate
# Method: as §1
# (§7) The resistance test vectors containing a functional luciferase gene cassette were constructed and host cells were transfected with the resistance test vector DNA. […] The IC50 values were determined by plotting percent drug inhibition vs. log 10 drug concentration.
# (§8) Host cells were seeded in 10-cm-diameter dishes and were transfected several days after plating with resistance test vector plasmid DNA and the envelope expression vector. […] HIV capsid protein (p24) levels in the harvested cell culture media were determined by an EIA method as described by the manufacturer (SIAC; Frederick, Md.). […] The inhibitory effect of the drug was determined using the following equation: […]
# [18] = system: HIV-1 RT mutant resistance test vector A62V-T69SSA-L74V-RTV; experiment: Phenotypic susceptibility assay, site directed RTV A62V-T69SSA-L74V; type: cell-based; details: RTV with 62 + 69 + 74V; 1 replicate
# Method: as §1, §2
# as §3, with “Cell lysates were assayed for luciferase activity (FIG. 3).” left out
# as §4
# as §5, with “The drug inhibition curves are shown in (FIG. 3).” left out
# [19] = system: HIV-1 RT mutant resistance test vector M41L-A62V-T69SSA-T215Y-RTV; experiment: Phenotypic susceptibility assay, site directed RTV M41L+A62V+T69SSA+T215Y; type: cell-based; details: RTV with 41 + 62 + 69 + 215; 3 replicates
# Method: as §1, §2
# as §3, with “Cell lysates were assayed for luciferase activity (FIG. 3).” left out
# as §4
# as §5, with “concentration.” for “concentration. The drug inhibition curves are shown in (FIG. 3).”
# Mutations may be incorporated alone and/or in combination with other known drug resistance mutations that are thought to modulate the susceptibility of HIV to a certain drug or class of drugs. Mutations are introduced into the resistance test vector through any of the widely known methods for site-directed mutagenesis. In one embodiment of this invention the mega-primer PCR method for site-directed mutagenesis is used.
# [20] = system: HIV-1 RT mutant resistance test vector M41L-T69SSA-T215Y-L210W-RTV; experiment: Phenotypic susceptibility assay, site directed RTV M41L+T69SSA+L210W+T215Y; type: cell-based; details: RTV with 41 + 69 + 210 + 215; 3 replicates
# Method: as §1
# as §2, with “Drug resistance was measured as the amount of drug required to inhibit by 50% the luciferase activity detected in the absence of drug (Inhibitory concentration 50%, IC50).” left out
# as §8
# [21] = system: HIV-1 RT mutant resistance test vector M41L-T69SSA-T215Y-L210W-V75M-RTV; experiment: Phenotypic susceptibility assay, site directed RTV M41L+T69SSA+V75M+L210W+T215Y; type: cell-based; details: RTV with 41 + 69 + 75M + 210 + 215; 1 replicate
# Method: as §1, §7, §8
# [22] = system: HIV-1 RT mutant resistance test vector M41L-A62V-T69SSA-T215Y-L210W-RTV; experiment: Phenotypic susceptibility assay, site directed RTV M41L+A62V+T69SSA+L210W+T215Y; type: cell-based; details: RTV with 41 + 62 + 69 + 210 + 215; 3 replicates
# Method: as §1
# as §2, with “Drug resistance was measured as the amount of drug required to inhibit by 50% the luciferase activity detected in the absence of drug (Inhibitory concentration 50%, IC50).” left out
# as §8
structure (smiles),measurement,setting,value
Nc1ncnc2c1ncn2CCOCP(=O)(O)O [adefovir],fold increase in IC50 / reduction in susceptibility,[1],16 fold
same,fold reduction in susceptibility,[2],9 fold
same,sensitivity of resistant viruses,[3],remain sensitive to adefovir
"[N-]=[N+]=N[C@H]1C[C@H](n2ccc(=O)[nH]c2=O)O[C@@H]1CO [AZU, 3′-azido-2′,3′-dideoxyuridine]",cross-resistance of ZDV-resistant strains,[4],cross-resistance
"Nc1ccn([C@@H]2CS[C@H](CO)O2)c(=O)n1 [3TC, lamivudine]",Average fold reduction in susceptibility,[5],0.54 fold
same,Average fold reduction in susceptibility,[6],3.20 fold
same,Average fold reduction in susceptibility,[7],2.89 fold
same,Average fold reduction in susceptibility,[8],4.08 fold
same,Average fold reduction in susceptibility,[9],1.89 fold
same,Average fold reduction in susceptibility,[10],2.14 fold
same,Average fold reduction in susceptibility,"[11]; RTV with 41 + 69 + 215 (M41L, T69SSA, T215Y), 2 replicates",6.27 fold
same,Average fold reduction in susceptibility,[12],18.41 fold
same,Average fold reduction in susceptibility,[13],31.67 fold
same,Average fold reduction in susceptibility,[14],>110 fold
same,Average fold reduction in susceptibility,[15],>110 fold
same,Average fold reduction in susceptibility,[16],>110 fold
"CC(C)Nc1cccnc1N1CCN(C(=O)c2cc3cc(NS(C)(=O)=O)ccc3[nH]2)CC1 [DEL, delavirdine]",Average fold reduction in susceptibility,[17],0.3 fold
same,Average fold reduction in susceptibility,[18],0.4 fold
same,effect on susceptibility (words),[11],slight increase in susceptibility to DEL and NEV
same,Average fold reduction in susceptibility,[19],0.2 fold
same,Average fold reduction in susceptibility,[20],0.13 fold
same,Average fold reduction in susceptibility,[21],0.25 fold
same,Average fold reduction in susceptibility,[22],0.2 fold
"Cc1ccnc2c1NC(=O)c1cccnc1N2C1CC1 [NEV, nevirapine]",Average fold reduction in susceptibility,[17],0.6 fold
same,Average fold reduction in susceptibility,[18],0.3 fold
same,effect on susceptibility (words),[11],slight increase in susceptibility to DEL and NEV
same,Average fold reduction in susceptibility,[19],0.8 fold
same,Average fold reduction in susceptibility,[20],0.42 fold
same,Average fold reduction in susceptibility,[21],0.5 fold
same,Average fold reduction in susceptibility,[22],0.6 fold
